The subject of test [1] is S. aureus. To be noted: S. aureus ATCC 29213; cited from earlier work.
Test [2] addresses T1, MraYSA (S. aureus MraY enzyme) (Staphylococcus aureus, UniProt Q2FZ93).
T1 sequence (Q2FZ93 1-321): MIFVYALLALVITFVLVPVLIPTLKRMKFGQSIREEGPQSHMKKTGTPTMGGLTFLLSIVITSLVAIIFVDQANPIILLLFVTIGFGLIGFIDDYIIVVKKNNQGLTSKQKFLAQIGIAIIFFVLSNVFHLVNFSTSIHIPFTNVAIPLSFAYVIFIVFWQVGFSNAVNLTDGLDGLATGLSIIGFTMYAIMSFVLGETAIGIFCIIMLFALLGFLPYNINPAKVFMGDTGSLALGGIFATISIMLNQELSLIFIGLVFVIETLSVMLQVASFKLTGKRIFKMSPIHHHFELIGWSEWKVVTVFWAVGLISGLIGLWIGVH
Also noted: His tag (inferred from His-Trap purification); made in house; host or cells: E. coli; method as in PMID 27622529. Particulars: read-out: MraYSA inhibitory activity IC50; cited from earlier work.

Test [3] deals with E. faecium. As to the kind of experiment: Antibacterial activity, MIC by microdilution broth method (CLSI). Particulars: Enterococcus faecium, ATCC35667, 20 h, E. faecium ATCC 35667; CA-MHB, 37 °C, 20 h; read-out: MIC. Type of test: cell-based, Enterococcus faecium. In general terms: In broth dilution the organism is exposed to a series of concentrations in liquid medium.
Test [4] relates to S. aureus. The description is as above. To be noted: Staphylococcus aureus, ATCC29213, 20 h, S. aureus ATCC 29213; CA-MHB, 37 °C, 20 h. The class given is cell-based, Staphylococcus aureus.
Test [5] deals with K. pneumoniae. The description is as above. Type of test: cell-based. To be noted: Klebsiella pneumoniae, ATCC13883; K. pneumoniae ATCC 13883; CA-MHB, 37 °C, 20 h.
Test [6] relates to A. baumannii. The test is described as above. Type of test: cell-based. Particulars: Acinetobacter baumannii, ATCC19606; A. baumannii ATCC 19606; CA-MHB, 37 °C, 20 h.
Test [7] concerns P. aeruginosa. The test is described as above. Type of test: cell-based. To be noted: Pseudomonas aeruginosa, ATCC27853; P. aeruginosa ATCC 27853; CA-MHB, 37 °C, 20 h.
In test [8] the test system is E. cloacae. Described as above. The class given is cell-based. To be noted: Enterobacter cloacae, ATCC13047; E. cloacae ATCC 13047; CA-MHB, 37 °C, 20 h.
Test [9] concerns M. tuberculosis. As to the kind of experiment: MIC in 7H9 liquid medium, 2 weeks. The class given is cell-based. To be noted: Mycobacterium tuberculosis, 336 h, M. tuberculosis H37Rv, 37 °C, minimum concentration inhibiting at least 50% of growth.
In test [10] the test system is M. avium. As to the kind of experiment: MIC in 7H9 liquid medium, 2 weeks. The class given is cell-based. Particulars: Mycobacterium avium, ATCC25291, 336 h, M. avium ATCC 25291, 37 °C, minimum concentration inhibiting at least 50% of growth.
For test [11], the system named is Gram-positive bacteria. As to the kind of experiment: Antibacterial activity against Gram-positive bacteria. To be noted: for antibacterial activity against Gram-positive bacteria: such as S. aureus and E. faecium. Type of test: cell-based.
Test [12] has as its system Gram-negative bacterial strains. In words: Antibacterial activity against Gram-negative bacteria. Type of test: cell-based. To be noted: four Gram-negative bacterial strains examined.
Test [13] has as its target MraYAA (Aquifex aeolicus, UniProt O66465). As to the kind of experiment: UMP-Glo assay. To be noted: for Normalized (UMP / Lipid I formed minus no-enzyme average), source data of Fig. 7a: replicates 1-3.
Test [14] deals with E. coli. In words: Antibacterial activity, MIC by microdilution broth method (CLSI). To be noted: E. coli ATCC 25922; CA-MHB, 37 °C, 20 h.
The target of test [15] is T1, MraYSA (S. aureus MraY enzyme). As to the kind of experiment: Fluorescence-based MraY inhibitory assay (dansylated Park's nucleotide). To be noted: for MraYSA activity, source data of Fig. 7b, average: average of n=1-3.

In brackets after ≈: the same amount, converted by molar mass. Several values for one entry are separate records, joined by “and”; a condition that tells them apart may be missing. Identical values can stand only once. Like-named read-outs stand apart in the source and are kept apart here.

Broadly, the MIC is the least concentration at which growth counts as inhibited. One may read the IC50 as the concentration that gives 50% inhibition.

Sequence of MraYAA (O66465 whole entry): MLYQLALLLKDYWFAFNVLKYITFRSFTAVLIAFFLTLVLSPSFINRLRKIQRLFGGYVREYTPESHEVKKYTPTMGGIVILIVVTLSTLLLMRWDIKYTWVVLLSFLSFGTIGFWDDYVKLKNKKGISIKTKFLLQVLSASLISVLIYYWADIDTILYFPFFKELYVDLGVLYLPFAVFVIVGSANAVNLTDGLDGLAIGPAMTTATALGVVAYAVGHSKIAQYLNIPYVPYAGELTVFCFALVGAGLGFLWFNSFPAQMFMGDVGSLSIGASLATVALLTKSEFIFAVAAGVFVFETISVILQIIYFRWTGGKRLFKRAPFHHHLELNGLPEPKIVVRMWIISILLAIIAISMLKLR

On to `CCCCCCCCCCCCCCCCC[C@H]1CN(C)[C@@H]([C@H](O[C@@H]2O[C@H](CN)[C@@H](O)[C@H]2O)[C@H]2O[C@@H](n3ccc(=O)[nH]c3=O)[C@H](O)[C@@H]2O)C(=O)N(C)[C@@H]1C(=O)O` [Carbacaprazamycin], for which, in [1], the minimal inhibitory concentration (MIC) is 8 µg/mL (≈ 10 µM). In test [2], the IC50 was 3.8 nM.
Consider `CCCCCCCCCCCCCCCC(=O)O[C@@H]1[C@@H]2CN(C[C@@H]1O)[C@H](C(=O)O)[C@@H]([C@H]1O[C@@H](n3ccc(=O)[nH]c3=O)[C@H](O)[C@@H]1O)O[C@@H]1O[C@H](CN2)[C@@H](O)[C@H]1O` [SPM-1], for which the MIC in [3] is 4 µg/mL (≈ 5.1 µM); in test [4], 2 µg/mL (≈ 2.55 µM); in [5], over 64 µg/mL; in test [6], over 64 µg/mL; in test [7], over 64 µg/mL; in test [8], over 64 µg/mL. In addition, the MIC in [9] was 16 µg/mL (≈ 20.4 µM); in test [10], 2 µg/mL (≈ 2.55 µM); in test [11] (range over S. aureus and E. faecium of Table 1, read-out: MIC against the Gram-positive pathogens) it was 2 to 4 µg/mL (≈ 2.55 to 5.1 µM); in [14], over 64 µg/mL. In test [11], the “antibacterial activity against Gram-positive bacteria” value is given as “active”. Besides, the “antibacterial activity against Gram-negative bacterial strains” value in test [12] is “inactive”. The IC50 was found to be 170 nM in [13] and 9.1 nM in [15]. Also, the “Normalized (UMP / Lipid I formed minus no-enzyme average), source data of Fig. 7a” value is 27.4002 and 27.6068 and 25.0152 in [13] (inhibitor concentration 0.025); 23.6062 and 21.9589 and 21.8339 in test [13] (inhibitor concentration 0.05); 22.1835 and 21.2199 and 20.7564 in test [13] (inhibitor concentration 0.1); 13.2781 and 11.6659 and 13.2137 in test [13] (inhibitor concentration 0.2); 8.4302 and 9.0267 and 7.4669 in test [13] (inhibitor concentration 0.3); 6.5859 and 6.3347 and 6.5433 in test [13] (inhibitor concentration 0.4). The “Normalized (UMP / Lipid I formed minus no-enzyme average), source data of Fig. 7a” value in [13] (inhibitor concentration 0.8) is 3.6877 and 2.5343 and 3.6699; in test [13] (inhibitor concentration 1) it was 4.5308 and 4.5928 and 4.1831; in test [13] (inhibitor concentration 5), 0.1572 and 0.6868 and 0.8992; in test [13] (inhibitor concentration 50), 0.4734 and -0.0522 and 0.3348. For the same compound, the “MraYSA activity, source data of Fig. 7b, average” value (“MraYSA activity, source data” for short) is 94.43 in test [15] (compound 0.0001 µM); 84.3881 in [15] (compound 0.001 µM); 49.3175 in test [15] (compound 0.01 µM); 11.924 in test [15] (compound 0.1 µM); 3.067 in [15] (compound 1 µM); 2.786 in [15] (compound 10 µM). Moreover, the “MraYSA activity, source data” value in test [15] (compound 100 µM) was 7.015.
`CCCCCCCCCCCCCCCC(=O)O[C@@H]1[C@H](O)CN2C[C@H]1NC[C@H]1O[C@@H](O[C@H]([C@H]3O[C@@H](n4ccc(=O)[nH]c4=O)[C@H](O)[C@@H]3O)[C@H]2C(=O)O)[C@H](O)[C@@H]1O` [SPM-2]: the MIC in test [3] is 16 µg/mL (≈ 20.4 µM); in test [4] it was over 64 µg/mL; in test [5] it was over 64 µg/mL; in test [6] it was over 64 µg/mL; in [7], over 64 µg/mL; in test [8], over 64 µg/mL. Besides, the figures for the MIC in [9], in [10] and in test [14] were over 32 µg/mL, 16 µg/mL (≈ 20.4 µM) and over 64 µg/mL, respectively. Besides, in test [11] (Gram-positive pathogens), the “MIC increase relative to SPM-1” value amounted to 4 fold. In addition, the “antibacterial activity against Gram-positive bacteria” value in test [11] is listed as “active”. Besides, the “antibacterial activity against Gram-negative bacterial strains” value in test [12] was “inactive”. The IC50 was 9200 nM in [13] and 330 nM in [15]. For the same compound, the “Normalized (UMP / Lipid I formed minus no-enzyme average), source data of Fig. 7a” value was 34.6720 and 31.83 and 31.8908 in test [13] (inhibitor concentration 0.1); 29.3499 and 29.56 and 31.6856 in [13] (inhibitor concentration 0.4); 31.9846 and 31.04 and 28.7608 in test [13] (inhibitor concentration 1); 26.0302 and 21.75 and 21.7826 in test [13] (inhibitor concentration 2.5); 29.9822 and 25.5 and 23.2193 in [13] (inhibitor concentration 5); 17.4410 and 14.04 and 12.8545 in test [13] (inhibitor concentration 12.5). Moreover, the “Normalized (UMP / Lipid I formed minus no-enzyme average), source data of Fig. 7a” value in test [13] (inhibitor concentration 25) is 11.3284 and 8.499 and 7.57; in test [13] (inhibitor concentration 50), 4.6362 and 4.593 and 4.08; in [13] (inhibitor concentration 70), 3.9512 and 2.534 and 2.592; in test [13] (inhibitor concentration 140) it was 2.0542 and 1.162 and 1.464. The “MraYSA activity, source data” value is recorded as 104.091 in test [15] (compound 0.0001 µM); 99.892 in test [15] (compound 0.001 µM); 103.991 in test [15] (compound 0.01 µM); 72.6566 in test [15] (compound 0.1 µM); 26.5839 in [15] (compound 1 µM); 7.955 in test [15] (compound 10 µM). Also, the “MraYSA activity, source data” value in [15] (compound 100 µM) is on record as 4.902.

Source of the values: PMC9768162, “Synthesis of macrocyclic nucleoside antibacterials and their interactions with MraY” (Nature Communications, 2022).
